Key:
Type in all cases: functional
Rattus norvegicus [1] = experiment: Antihyperglycemic activity in streptozotocin-induced nonfasted diabetic rat assessed as decrease in blood glucose level at 20 mg/kg, po administered for 3 days measured 1 hr after last dose; set-up: scale not given: the % may be the effect or the level left
Rattus norvegicus [2] = experiment: Effect on nondiabetic rat assessed as blood glucose level per 100 mL at 20 mg/kg, po
Rattus norvegicus [3] = species on record: Rattus norvegicus; experiment: Decrease in body weight in nondiabetic rat; set-up: scale not given: the % may be the effect or the level left
Rattus norvegicus [4] = experiment: Antihyperglycemic activity in streptozotocin-induced nonfasted diabetic rat assessed as decrease in blood glucose level at 30 mg/kg, po administered for 3 days measured 1 hr after last dose; set-up: scale not given: the % may be the effect or the level left

SMILES	Activity (Rattus norvegicus [1])	Activity (Rattus norvegicus [2])	Activity (Rattus norvegicus [3])	Activity (Rattus norvegicus [4])
COc1cc(O)cc2c1C(=O)C(O)(Cc1ccc(O)cc1)O2 (configuration not stated) [CARPUSIN]	33%	64%	20%	–
COc1cc(/C=C/c2ccc(O)cc2)cc(OC)c1 [PTEROSTILBENE]	11%	65%	20%	–
CN(C)C(=N)NC(=N)N [METFORMIN]	–	–	–	48%

From ChEMBL document CHEMBL1146404, “Antihyperglycemic activity of phenolics from Pterocarpus marsupium” (1997)
